Reference: the NIST ThermoML archive (doi:10.1021/je700152c)
Numbers after ± are expanded uncertainties.

Assay: molar heat capacity at saturation pressure; xn = mol fraction of the nth substance listed

CCCCn1cc[n+](C)c1.Cc1ccc(S(=O)(=O)[O-])cc1 [1-butyl-3-methylimidazolium tosylate] + O
Settings	molar heat capacity [J/K/mol]
294.67 K, Crystal, x1 = 0.3	204.91 ± 2.1
294.68 K, Crystal, x1 = 0.83	580.85 ± 5.2
294.91 K, Crystal, x1 = 0.37	561.1 ± 5
295.64 K, Crystal, x1 = 0.37	590.88 ± 5.2
295.82 K, Liquid, x1 = 0.3	198.57 ± 2
296.25 K, Crystal, x1 = 0.83	574.07 ± 5.2
296.33 K, Crystal, x1 = 0.37	593.15 ± 5.2
296.53 K, Metastable crystal, x1 = 0.83	425.47 ± 3.9
296.97 K, Liquid, x1 = 0.3	199.1 ± 2
297.06 K, Crystal, x1 = 0.37	577.63 ± 5.2
297.82 K, Crystal, x1 = 0.37	542.42 ± 5.2
297.88 K, Crystal, x1 = 0.83	481.52 ± 4.4
298.13 K, Liquid, x1 = 0.3	199.52 ± 2
298.45 K, Metastable crystal, x1 = 0.83	435.64 ± 3.9
298.66 K, Crystal, x1 = 0.37	429.59 ± 4.9
299.28 K, Liquid, x1 = 0.3	199.84 ± 2
299.67 K, Crystal, x1 = 0.83	439.03 ± 3.9
299.68 K, Crystal, x1 = 0.37	268.68 ± 4
300.26 K, Metastable crystal, x1 = 0.83	440.59 ± 3.9
301.01 K, Liquid, x1 = 0.3	200.58 ± 2
301.5 K, Crystal, x1 = 0.83	445.81 ± 3.9
301.5 K, Liquid, x1 = 0.37	233.85 ± 2.3
302.51 K, Metastable crystal, x1 = 0.83	454.93 ± 4.2
303.31 K, Crystal, x1 = 0.83	454.15 ± 4.2
303.34 K, Liquid, x1 = 0.3	201.21 ± 2
304 K, Liquid, x1 = 0.37	232.59 ± 2.3
305.11 K, Crystal, x1 = 0.83	462.49 ± 4.2
305.64 K, Liquid, x1 = 0.3	201.95 ± 2.1
306.39 K, Metastable crystal, x1 = 0.83	484.39 ± 4.4
306.5 K, Liquid, x1 = 0.37	233.6 ± 2.3
306.89 K, Crystal, x1 = 0.83	471.88 ± 4.2
307.94 K, Liquid, x1 = 0.3	202.8 ± 2.1
308.65 K, Crystal, x1 = 0.83	484.39 ± 4.4
309 K, Liquid, x1 = 0.37	234.48 ± 2.3
309.82 K, Metastable crystal, x1 = 0.83	516.2 ± 4.7
310.24 K, Liquid, x1 = 0.3	203.54 ± 2.1
310.39 K, Crystal, x1 = 0.83	497.69 ± 4.4
311.5 K, Liquid, x1 = 0.37	235.37 ± 2.3
312.09 K, Crystal, x1 = 0.83	512.81 ± 4.7
312.54 K, Liquid, x1 = 0.3	204.38 ± 2.1
313.06 K, Metastable crystal, x1 = 0.83	550.87 ± 5
313.75 K, Crystal, x1 = 0.83	529.23 ± 4.7
313.99 K, Liquid, x1 = 0.37	236.25 ± 2.4
314.83 K, Liquid, x1 = 0.3	205.13 ± 2.1
315.4 K, Crystal, x1 = 0.83	549.31 ± 5
316.18 K, Metastable crystal, x1 = 0.83	596.49 ± 5.2
316.49 K, Liquid, x1 = 0.37	237.13 ± 2.4
317.02 K, Crystal, x1 = 0.83	571.21 ± 5
317.13 K, Liquid, x1 = 0.3	205.87 ± 2.1
318.6 K, Crystal, x1 = 0.83	596.23 ± 5.2
318.98 K, Liquid, x1 = 0.37	238.14 ± 2.4
319.16 K, Metastable crystal, x1 = 0.83	653.33 ± 5.7
319.42 K, Liquid, x1 = 0.3	206.82 ± 2.1
320.13 K, Crystal, x1 = 0.83	624.39 ± 5.5
321.47 K, Liquid, x1 = 0.37	239.03 ± 2.4
321.62 K, Crystal, x1 = 0.83	655.93 ± 5.7
321.7 K, Liquid, x1 = 0.3	207.45 ± 2.1
321.99 K, Metastable crystal, x1 = 0.83	719.81 ± 6.3
323.06 K, Crystal, x1 = 0.83	690.35 ± 6
323.96 K, Liquid, x1 = 0.37	239.91 ± 2.4
323.99 K, Liquid, x1 = 0.3	208.19 ± 2.1
324.46 K, Crystal, x1 = 0.83	727.63 ± 6.3
324.62 K, Metastable crystal, x1 = 0.83	811.31 ± 7
325.81 K, Crystal, x1 = 0.83	774.82 ± 6.8
326.27 K, Liquid, x1 = 0.3	209.04 ± 2.1
326.44 K, Liquid, x1 = 0.37	240.92 ± 2.4
327.04 K, Metastable crystal, x1 = 0.83	934.11 ± 8.1
327.1 K, Crystal, x1 = 0.83	828.52 ± 7
328.33 K, Crystal, x1 = 0.83	892.65 ± 7.6
328.55 K, Liquid, x1 = 0.3	209.99 ± 2.1
328.93 K, Liquid, x1 = 0.37	241.8 ± 2.4
329.23 K, Metastable crystal, x1 = 0.83	1093.4 ± 9.4
329.5 K, Crystal, x1 = 0.83	965.13 ± 8.3
330.61 K, Crystal, x1 = 0.83	1053 ± 9.1
330.82 K, Liquid, x1 = 0.3	210.94 ± 2.1
331.17 K, Metastable crystal, x1 = 0.83	1295.7 ± 11
331.41 K, Liquid, x1 = 0.37	242.69 ± 2.4
331.64 K, Crystal, x1 = 0.83	1141.9 ± 9.6
332.6 K, Crystal, x1 = 0.83	1224.8 ± 11
332.82 K, Metastable crystal, x1 = 0.83	1513.7 ± 13
333.09 K, Liquid, x1 = 0.3	212.21 ± 2.1
333.26 K, Crystal, x1 = 0.83	1386.4 ± 13
333.89 K, Liquid, x1 = 0.37	243.57 ± 2.4
334.14 K, Crystal, x1 = 0.83	1617.9 ± 14
334.32 K, Metastable crystal, x1 = 0.83	1881.5 ± 16
335.19 K, Crystal, x1 = 0.83	1296.5 ± 12
335.35 K, Liquid, x1 = 0.3	213.8 ± 2.1
336.19 K, Crystal, x1 = 0.83	1133.3 ± 11
336.37 K, Liquid, x1 = 0.37	244.45 ± 2.4
336.41 K, Metastable crystal, x1 = 0.83	678.36 ± 13
337.35 K, Crystal, x1 = 0.83	711.99 ± 9.1
337.61 K, Liquid, x1 = 0.3	215.06 ± 2.2
338.19 K, Crystal, x1 = 0.83	480.74 ± 7
338.85 K, Liquid, x1 = 0.37	245.21 ± 2.4
339.63 K, Liquid, x1 = 0.83	464.32 ± 4.2
339.88 K, Liquid, x1 = 0.3	213.58 ± 2.1
340.02 K, Liquid, x1 = 0.83	459.1 ± 4.2
341.32 K, Liquid, x1 = 0.37	246.09 ± 2.4
341.87 K, Liquid, x1 = 0.83	460.41 ± 4.2
342.14 K, Liquid, x1 = 0.3	213.58 ± 2.1
342.82 K, Liquid, x1 = 0.83	461.71 ± 4.2
343.71 K, Liquid, x1 = 0.83	461.71 ± 4.2
343.8 K, Liquid, x1 = 0.37	246.98 ± 2.4
344.41 K, Liquid, x1 = 0.3	214.32 ± 2.1
345.56 K, Liquid, x1 = 0.83	462.75 ± 4.2
345.93 K, Liquid, x1 = 0.83	463.79 ± 4.2
346.27 K, Liquid, x1 = 0.37	247.86 ± 2.4
346.67 K, Liquid, x1 = 0.3	214.96 ± 2.2
347.4 K, Liquid, x1 = 0.83	464.06 ± 4.2
348.75 K, Liquid, x1 = 0.37	248.62 ± 2.4
348.93 K, Liquid, x1 = 0.3	215.7 ± 2.2
349.04 K, Liquid, x1 = 0.83	465.88 ± 4.2
349.25 K, Liquid, x1 = 0.83	465.36 ± 4.2
351.1 K, Liquid, x1 = 0.83	466.66 ± 4.2
351.19 K, Liquid, x1 = 0.3	216.44 ± 2.2
351.22 K, Liquid, x1 = 0.37	249.38 ± 2.4
352.16 K, Liquid, x1 = 0.83	467.97 ± 4.2
352.94 K, Liquid, x1 = 0.83	467.71 ± 4.2
353.44 K, Liquid, x1 = 0.3	217.07 ± 2.2
353.69 K, Liquid, x1 = 0.37	250.51 ± 2.4
354.79 K, Liquid, x1 = 0.83	469.01 ± 4.2
355.28 K, Liquid, x1 = 0.83	469.79 ± 4.2
355.69 K, Liquid, x1 = 0.3	217.81 ± 2.2
356.16 K, Liquid, x1 = 0.37	251.4 ± 2.5
356.63 K, Liquid, x1 = 0.83	470.31 ± 4.2
357.94 K, Liquid, x1 = 0.3	218.55 ± 2.2
358.39 K, Liquid, x1 = 0.83	471.88 ± 4.2
358.47 K, Liquid, x1 = 0.83	471.62 ± 4.2
358.63 K, Liquid, x1 = 0.37	252.4 ± 2.5
360.18 K, Liquid, x1 = 0.3	219.19 ± 2.2
360.31 K, Liquid, x1 = 0.83	472.92 ± 4.2
361.09 K, Liquid, x1 = 0.37	253.04 ± 2.5
361.5 K, Liquid, x1 = 0.83	473.7 ± 4.2
362.15 K, Liquid, x1 = 0.83	474.22 ± 4.2
362.42 K, Liquid, x1 = 0.3	219.82 ± 2.2
363.55 K, Liquid, x1 = 0.37	253.92 ± 2.5
363.99 K, Liquid, x1 = 0.83	475.27 ± 4.2
364.61 K, Liquid, x1 = 0.83	475.79 ± 4.2
364.66 K, Liquid, x1 = 0.3	220.25 ± 2.2
365.82 K, Liquid, x1 = 0.83	476.31 ± 4.2
366 K, Liquid, x1 = 0.37	254.68 ± 2.5
366.89 K, Liquid, x1 = 0.3	221.09 ± 2.2
367.72 K, Liquid, x1 = 0.83	477.87 ± 4.2
368.46 K, Liquid, x1 = 0.37	255.69 ± 2.5
